The METLIN SMRT retention time set (Domingo-Almenara et al. 2019)

Experiment: gradient 5% acetonitrile 3 min, to 50% in 2 min, to 85% in 15 min, held 3 min, 100 µL/min
Conditions: column: Zorbax Extend-C18 2.1 x 50 mm; eluents: water / acetonitrile, 0.1% formic acid
Method in brief: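 The mobile phases were water and acetonitrile, each with 0.1% formic acid, pumped at 100 μL/min through a Zorbax Extend-C18 column (2.1 × 50 mm, 1.8 μm). Pure standards were injected as mixtures of ~100 molecules and detected by a quadrupole time-of-flight mass spectrometer in positive and negative ionization mode. Retention time came from computationally picked adduct peaks, each inspected by hand.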

RP-LC retention time [s] | Compound
857 | CC1=C(c2ccccc2)S(=O)(=O)N=C1N1CCC(NC(=O)CCC(C)C)CC1
854 | COc1cccc(NC(=O)NC2CCN(c3ccc(C)c(C)c3)C2=O)c1 (stereo not given)
856 | COc1ccc(-c2c(C)noc2NC(C)=O)cc1S(=O)(=O)N1CCCc2ccccc21
751 | Cc1nc2ccn(Cc3ccco3)c(=O)c2cc1C(=O)NC1CCCCC1
465 | c1ccc(CN2CCCC(c3n[nH]c(C4CC4)n3)C2)nc1 (stereo not given)
844 | COc1ccc(-c2nnc(-c3ccc(C)c(S(=O)(=O)N4CCOCC4)c3)o2)cc1OC
993 | CCn1c(=O)c2ccccc2n(Cc2nc(-c3ccc(OC)cc3)no2)c1=O
679 | COCCOCc1nc(C2CCCN2C(=O)c2ccsc2)no1 (stereo not given)
872 | CCCNC(=O)C1CCN(c2nc3ccc(-c4cccs4)nc3s2)CC1
638 | O=C(Nc1ccc2c(c1)OCCO2)c1ccnc(N2CCNC(c3ccccc3)C2)c1 (stereo not given)
1100 | COc1ccc(-c2nc(Cn3ccn4nc(-c5ccccc5OC)cc4c3=O)c(C)o2)cc1
611 | Nc1nc(N2CCOCC2)ncc1C(=O)Nc1ccccc1
860 | CCOc1cccc(-c2noc(Cn3ncn4nc(-c5ccc(F)cc5)cc4c3=O)n2)c1
646 | CCN1CCN(c2cc(C)c3cc(NC(=O)C(c4ccccc4)C4CCCC4)ccc3n2)CC1 (stereo not given)
1110 | CCOc1ccc(-c2nnc(SCC(=O)N3c4ccccc4CC3C)o2)cc1 (stereo not given)
580 | CN(C)C(=O)CN1CCN(c2cc(C(=O)O)c3cc(NC(=O)c4ccccc4F)ccc3n2)CC1
646 | O=C(NCCCN1CCc2ccccc2C1)c1ccnc(-c2cccs2)c1
536 | CCCS(=O)(=O)N1C[C@@H](COC)[C@H](c2ccncc2)C1
983 | Cc1ccc(F)cc1NC(=O)c1sc(-c2cn(C)c3ncccc23)nc1C
696 | COc1ccc(CNC(=O)c2ccc3c(c2)CC(=O)N3C)cc1
646 | COCCc1nncn1C1CCN(C(=O)c2ccccc2OC(F)(F)F)CC1
908 | Cc1nnc2ccc(-c3noc(-c4ccccc4Br)n3)cn12
705 | CCn1cc(CCNC(=O)c2sccc2C)c2cccnc21

RP-LC retention time [s] | Compound
628 | O=C(CCCCCCC(=O)Nc1ccc(F)cc1)NO
724 | O=C(NCC(c1cccnc1)c1c[nH]c2ccccc12)Nc1ccc(Br)cc1 (stereo not given)
602 | CC1CN(C(=O)CCC(=O)NCCCN2CCN(C3CCCCC3)CC2)c2ccccc2O1 (stereo not given)
652 | CCOc1ccc(NC(=O)Cn2c(N3CCOCC3)nc3cc(C)n(C)c3c2=O)cc1
1000 | Cc1c(S(=O)(=O)N2CCCCC2)c(C)n(C)c1-c1nnc(C2CCC2)o1
781 | Cc1noc(-c2ccc(OC3CN(C(=O)NCC(C)C)C3)cc2)n1
690 | O=C(NCCCN1CCCC1=O)c1nc2ccccn2c1-c1ccc(Cl)cc1
1000 | CCCNC(=O)N(CC(=O)N1CCc2sccc2C1COc1ccc(C)cc1)CC1CCCO1 (stereo not given)
1140 | CC(C)c1ccc(-c2ccc(=O)n(CCc3nc(-c4ccc5c(c4)OCO5)no3)n2)cc1
669 | Cc1ccc(F)c2c(=O)c3c([nH]c12)CCN(CC(=O)NC1CCCC1)C3
1100 | Cc1ccc(Cn2cccc2C(=O)C(=O)NC2CCCC2)cc1
1110 | Cc1ccccc1-c1noc(CN2C(=O)C(C)Oc3ccccc32)n1 (stereo not given)
747 | COCc1nc2cccnc2n1C1CCN(C(=O)Nc2cc(C)cc(C)c2)CC1
914 | O=C(NCCc1c[nH]c2ccc(F)cc12)c1cn(-c2ccc(F)cc2)nn1
923 | Cc1ccc(S(=O)(=O)N2C[C@@H](F)C[C@H]2C(=O)N2CCc3ccccc3C2)cc1
1220 | CCc1nc2cc(-c3noc(Cc4ccccc4Br)n3)ccc2o1
1060 | O=C(Nc1nc(-c2cccc([N+](=O)[O-])c2)cs1)c1ccc(Cl)cc1Cl
950 | Cc1ccc(C(=O)Nc2cccn3nc(C(C)C)nc23)cc1
589 | CC(C)c1nc2cccnc2n1CCN1CCN(C(=O)Nc2ccc(F)cc2F)CC1
773 | CCC(=O)N1CCc2sc(S(=O)(=O)NCc3ccc4c(c3)OCO4)cc2C1
1120 | COC(=O)c1ccccc1NC(=O)CCCn1c(=O)c2cccn2c2ccc(Br)cc21
577 | CCCC(=O)N1CCCn2nc(-c3cccnc3)cc2C1
596 | CN(C)C(CNC(=O)C1(c2cccs2)CCCC1)c1ccsc1 (stereo not given)

RP-LC retention time [s] | Compound
1190 | O=C(NCc1ccc(F)cc1F)c1c(O)c2cccnc2n(-c2cccc(F)c2)c1=O
575 | Cn1ncc2c(N3CCSCC3)nc(C(=O)NCCc3cccnc3)nc21
654 | CCOC(=O)CSc1nnc(-c2cccnc2)n1-c1ccccc1
873 | COc1ccccc1Oc1ccc(S(=O)(=O)NCc2ccco2)cc1
718 | CC(=O)Nc1ccc(C(=O)N2CCC3(CC2)N=C(c2ccc(Cl)cc2)NO3)cc1
612 | COC(=O)CNC(=O)N1CCCN(c2nc3cc(F)ccc3n3cccc23)CC1
912 | O=C(Cc1cccc(F)c1)N1CCC2(CC1)N=C(c1ccc(Cl)cc1)NO2
684 | CCCNc1cc(N2CCC(CCC(=O)NCc3ccccc3OC)CC2)ncn1
589 | CC1CCCN(C(=O)c2cc3c(s2)CCN(C(=O)c2ccccc2)C3)C1 (stereo not given)
929 | CCc1nc(-c2ccc(S(=O)(=O)N3CCC(C(=O)Nc4ccc5c(c4)OCCO5)CC3)cc2)no1
748 | CC(C)NC(=O)N1CCc2c(c(-c3nc(Cc4ccccc4)no3)nn2C)C1
611 | N#Cc1cccc(-c2cn3c(n2)N(C(=O)c2ccncc2)CCC3)c1
1280 | Cc1ccccc1OCCCC(=O)Nc1nc(-c2ccc(Br)cc2)cs1
1330 | Cc1ccc(-c2noc(-c3ccccc3S(=O)(=O)NCCC(C)C)n2)cc1
723 | CCOC(=O)c1[nH]c(C)c(CCC(=O)N2CCC(C(=O)NC(C)CC)CC2)c1C (stereo not given)
984 | CCc1nc(-c2csc(S(=O)(=O)N3CCCC(C(=O)Nc4ccc5c(c4)OCO5)C3)c2)no1 (stereo not given)
876 | CCn1cc(C2=CCN(C(=O)Cc3ccc(F)cc3)CC2)c2cccnc21
1030 | CCOC(=O)C1CCN(c2ncc(S(=O)(=O)c3ccc(Cl)cc3)c(N)n2)CC1
1080 | Cc1cc(C)cc(-c2nnc(Cc3nc(-c4ccccc4F)no3)o2)c1
732 | Cc1nc(-c2cnccn2)nc2c1CCC(=O)N2Cc1ccc(F)cc1
809 | Cc1cc(NC(=O)c2nc3ccccc3s2)sn1
596 | Cc1ccc(-n2c(=O)n(CC(=O)NCCN3CCOCC3)c3cccnc32)cc1
650 | CCOC(=O)C1=C(c2ccccc2)NC(SCC)=C(C#N)C1c1cccnc1 (stereo not given)

RP-LC retention time [s] | Compound
612 | CC(C)c1nncn1C1CCN(C(=O)c2ccc3c(c2)OCO3)C1 (stereo not given)
788 | COc1cc(CNC(=O)c2nc(CCS(=O)(=O)c3ccc(F)cc3)no2)cc(OC)c1OC
732 | Cn1c(N2CCN(C(=O)Cc3ccccc3Cl)CC2)cc(=O)n(C)c1=O
1050 | N#Cc1c(NC(=O)c2ccc([N+](=O)[O-])cc2Cl)sc2c1CCCC2
979 | CCCN(Cc1cccs1)C(=O)C1CCc2nc(N3CCC(C)CC3)ncc2C1 (stereo not given)
764 | CC(C)NC(=O)c1ccc(Nc2c(-c3ccc(Cl)cc3)nc3cnccn23)cc1
708 | CCCn1c(CCc2ccccc2NS(=O)(=O)CCC)nc2ccccc21
813 | COc1ccc(-c2cn3c(C(=O)Nc4ccc5c(c4)OCCO5)csc3n2)cc1
684 | Cn1cc(C(CNC(=O)Nc2ccc3c(c2)OCO3)c2cccnc2)c2ccccc21 (stereo not given)
747 | O=[N+]([O-])c1cccc(/C=C/c2ccccn2)c1
733 | COc1ccc(-n2ccn3cc(-c4ccc5c(c4)OCO5)nc3c2=O)cc1OC
679 | CC(C)(C)NC(=O)N1CCC(CNC(=O)c2ccc3nsnc3c2)CC1
1010 | Cc1cc(C(=O)Nc2ccc(Br)cc2F)n(-c2ccccc2)n1
913 | O=C(CN1C(=O)CCc2cc(Br)ccc21)N1CCN(c2ccccc2)CC1
737 | COc1ccc(CCC(=O)Nc2cnn(-c3ncc(N(C)C)cn3)c2)cc1
770 | Cc1ccc2nc(N3CCNCC3)c(-c3noc(-c4ccccc4)n3)cc2c1
637 | CC(=O)N1c2ccc(S(=O)(=O)N3CCCCCC3)cc2CC1C(=O)NCCN(C)C (stereo not given)
806 | COc1cccc(CNC(=O)C2(C)CCN(C(=O)Nc3ccccc3C(F)(F)F)CC2)c1
1080 | Cc1cccc(-c2noc(-c3nn(CC(=O)N4CCCC4)c4ccccc34)n2)c1
802 | CCOC(=O)CNC(=O)NC12CC3CC(CC(C3)C1)C2
736 | COc1ncc(C(=O)Nc2ccc(C)cc2C)c(C)n1
